The target of test [1] is T1, Histamine H3 receptor (Homo sapiens, UniProt Q9Y5N1). Description: Binding affinity towards cloned human H3L receptor.
In test [2] the target is Histamine H3 receptor (Rattus norvegicus, UniProt Q9QYN8). Description: Binding affinity towards rat cortical Histamine H3 receptor.
The next test deals with Histamine H1 receptor (Homo sapiens, UniProt P35367). Description: Compound was tested for its binding affinity towards human H1 receptor.
The target of test [3] is T1, Histamine H3 receptor. Description: Compound was tested for its binding affinity towards human H3L receptor.
Another test has as its target Histamine H2 receptor (Homo sapiens, UniProt P25021). Description: Compound was tested for its binding affinity towards human H2 receptor.

Molecules are shown by their SMILES.

Histamine H2 receptor, sequence (P25021 whole entry): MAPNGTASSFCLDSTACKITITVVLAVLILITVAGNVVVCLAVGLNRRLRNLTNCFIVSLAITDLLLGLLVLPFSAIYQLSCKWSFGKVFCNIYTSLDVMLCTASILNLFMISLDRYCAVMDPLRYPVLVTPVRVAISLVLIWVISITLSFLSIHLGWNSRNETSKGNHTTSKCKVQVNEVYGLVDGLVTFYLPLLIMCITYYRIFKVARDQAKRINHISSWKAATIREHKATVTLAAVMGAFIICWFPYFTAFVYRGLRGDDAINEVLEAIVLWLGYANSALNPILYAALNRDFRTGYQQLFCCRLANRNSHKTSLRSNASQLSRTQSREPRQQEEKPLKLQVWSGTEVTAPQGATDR
Histamine H1 receptor, sequence (P35367 whole entry): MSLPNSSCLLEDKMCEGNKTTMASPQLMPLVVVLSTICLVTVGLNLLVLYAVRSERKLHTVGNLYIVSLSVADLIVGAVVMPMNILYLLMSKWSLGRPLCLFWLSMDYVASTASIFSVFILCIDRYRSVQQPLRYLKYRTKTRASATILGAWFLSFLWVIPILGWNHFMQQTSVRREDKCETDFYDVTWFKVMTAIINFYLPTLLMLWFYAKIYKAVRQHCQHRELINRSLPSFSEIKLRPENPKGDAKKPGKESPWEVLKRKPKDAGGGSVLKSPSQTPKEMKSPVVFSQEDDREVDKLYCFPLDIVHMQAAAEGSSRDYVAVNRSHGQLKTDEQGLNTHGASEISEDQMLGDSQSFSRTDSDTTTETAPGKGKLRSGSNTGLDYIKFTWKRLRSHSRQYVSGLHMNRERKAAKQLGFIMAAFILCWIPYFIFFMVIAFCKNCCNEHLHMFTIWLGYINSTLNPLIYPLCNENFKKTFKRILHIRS
T1 sequence (Q9Y5N1 whole entry): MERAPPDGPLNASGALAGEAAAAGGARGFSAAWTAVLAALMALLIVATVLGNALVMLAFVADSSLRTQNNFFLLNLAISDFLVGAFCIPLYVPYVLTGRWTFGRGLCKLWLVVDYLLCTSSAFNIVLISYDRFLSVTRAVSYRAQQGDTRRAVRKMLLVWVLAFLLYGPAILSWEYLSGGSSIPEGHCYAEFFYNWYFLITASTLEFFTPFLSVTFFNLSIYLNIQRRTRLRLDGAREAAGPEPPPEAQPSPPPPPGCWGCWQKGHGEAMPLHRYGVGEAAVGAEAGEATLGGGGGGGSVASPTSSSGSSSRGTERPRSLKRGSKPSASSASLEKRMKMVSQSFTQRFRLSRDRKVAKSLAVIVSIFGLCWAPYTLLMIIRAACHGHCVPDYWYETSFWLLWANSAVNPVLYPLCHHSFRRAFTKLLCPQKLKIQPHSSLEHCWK
Histamine H3 receptor (Rattus norvegicus, UniProt Q9QYN8), sequence (Q9QYN8 whole entry): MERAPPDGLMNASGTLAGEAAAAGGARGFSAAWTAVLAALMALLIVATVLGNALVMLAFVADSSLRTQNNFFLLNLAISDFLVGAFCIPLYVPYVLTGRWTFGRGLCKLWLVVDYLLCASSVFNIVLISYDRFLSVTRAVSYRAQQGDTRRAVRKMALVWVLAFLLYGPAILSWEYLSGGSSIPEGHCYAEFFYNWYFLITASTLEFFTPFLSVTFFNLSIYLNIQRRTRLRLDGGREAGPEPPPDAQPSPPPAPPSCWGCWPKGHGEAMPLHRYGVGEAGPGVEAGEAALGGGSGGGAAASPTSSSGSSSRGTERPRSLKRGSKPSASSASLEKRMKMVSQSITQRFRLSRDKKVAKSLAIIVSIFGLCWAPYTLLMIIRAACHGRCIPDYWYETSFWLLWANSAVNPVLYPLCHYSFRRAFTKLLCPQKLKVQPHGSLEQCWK

As for `CN(C)CCCNc1c2c(nc3ccccc13)CCCCC2`, the Ki (in general, a dissociation constant, usually derived from enzyme kinetics or from competition with a known ligand) on Histamine H3 receptor [1] is 0.00977 µM; at Histamine H3 receptor [2] it was 0.0219 µM; on Histamine H1 receptor, 7.7 µM; on Histamine H3 receptor [3], 0.0097 µM; at Histamine H2 receptor it was 10.1 µM.
Turning to `C(=C/c1c2c(nc3ccccc13)CCCCC2)/CCN1CCCCC1`, the figures for the Ki on Histamine H3 receptor [1] and at Histamine H3 receptor [2] were 0.0871 µM and 0.275 µM, respectively.
For `CC(C)(C)OC(=O)N[C@H]1[C@@H]2CN(CCCNc3c4c(nc5ccccc35)CCCCC4)C[C@@H]21` the same measures were 0.0468 µM and 0.0513 µM.
On to `CC(=O)N(CCCN(C)C)c1c2c(nc3ccccc13)CCCCC2`, for which the Ki at Histamine H3 receptor [1] was 1 µM; on Histamine H3 receptor [2] it was greater than 1 µM.
In the case of `C(#Cc1c2c(nc3ccccc13)CCCCC2)CCN1CCOCC1`, the Ki at Histamine H3 receptor [1] and at Histamine H3 receptor [2] was greater than 1 µM throughout.
Turning to `OC[C@@H]1CCN(CCC#Cc2c3c(nc4ccccc24)CCCCC3)C1`, the Ki on Histamine H3 receptor [1] is 0.251 µM; at Histamine H3 receptor [2], 0.617 µM.
The corresponding values for `c1ccc2c(NCCCN3CCOCC3)c3c(nc2c1)CCCCC3` are 0.759 µM and 0.398 µM.
The corresponding values for `CN(C)CCCNc1c2c(nc3ccccc13)CCSC2` are 0.0537 µM and 0.0589 µM.
Regarding `C(#Cc1c2c(nc3ccccc13)CCCCC2)CCN1CCCCCC1`, the Ki is 0.437 µM at Histamine H3 receptor [1] and greater than 1 µM at Histamine H3 receptor [2].
For `CN1CCN(CCC#Cc2c3c(nc4ccccc24)CCCCC3)CC1` the same measures were 0.724 µM and greater than 1 µM.
For `N[C@@H]1[C@H]2CN(CCCNc3c4c(nc5ccccc35)CCCCC4)C[C@@H]12`, the Ki at Histamine H3 receptor [1] is 0.0447 µM; at Histamine H3 receptor [2] it was 0.0741 µM.
On to `c1ccc2c(N3CCCNCC3)c3c(nc2c1)CCCCC3`, for which the Ki at Histamine H3 receptor [1] and at Histamine H3 receptor [2] was greater than 1 µM in each case.
Consider `c1ccc2c(NCCCN3CCCC3)c3c(nc2c1)CCCCC3`, for which the Ki is 0.00174 µM at Histamine H3 receptor [1]; 0.00251 µM at Histamine H3 receptor [2]; 15.7 µM at Histamine H1 receptor; 0.0066 µM on Histamine H3 receptor [3]; 3.78 µM on Histamine H2 receptor.
For `CN(C)CCCCNc1c2c(nc3ccccc13)CCCCC2`, the figures for the Ki on Histamine H3 receptor [1] and at Histamine H3 receptor [2] were 0.0437 µM and 0.0389 µM, respectively.
For `C(#Cc1c2c(nc3ccccc13)CCCCC2)CCN1CCCC1` the same measures were 0.214 µM and 0.646 µM.
Turning to `C(#Cc1c2c(nc3ccccc13)CCCCC2)CCN1CCCCC1`, the Ki was 0.0794 µM at Histamine H3 receptor [1]; 0.407 µM at Histamine H3 receptor [2]; 1 µM on Histamine H1 receptor; 0.08 µM at Histamine H3 receptor [3]; 3.21 µM on Histamine H2 receptor.
As for `CN(C)CCNc1c2c(nc3ccccc13)CCCCC2`, the Ki on Histamine H3 receptor [1] was 0.0479 µM; on Histamine H3 receptor [2], 0.148 µM.
Consider `OC[C@H]1CCN(CCC#Cc2c3c(nc4ccccc24)CCCCC3)C1`, for which the Ki is 0.955 µM on Histamine H3 receptor [1] and greater than 1 µM at Histamine H3 receptor [2].
The corresponding values for `CN(C)CCC#Cc1c2c(nc3ccccc13)CCCCC2` are 0.389 µM and 0.692 µM.
The corresponding values for `C(#Cc1c2c(nc3ccccc13)CCCCCC2)CCN1CCCCC1` are 0.158 µM and 0.646 µM.
As for `CN(C)CCCNc1c2c(nc3c1CCCC3)CCCCC2`, the Ki on Histamine H3 receptor [2] is 0.355 µM.
Regarding `CC(C)(C)OC(=O)N1CCN(c2c3c(nc4ccccc24)CCCCC3)CC1`, the Ki at Histamine H3 receptor [1] and at Histamine H3 receptor [2] was greater than 1 µM throughout.
As to `c1ccc2c(NCCCn3ccnc3)c3c(nc2c1)CCCCC3`, the Ki at Histamine H3 receptor [1] and on Histamine H3 receptor [2] was greater than 1 µM each time.
In the case of `CN1CCCC1CCNc1c2c(nc3ccccc13)CCCCC2` (stereo not drawn), the Ki on Histamine H3 receptor [1] was 0.00661 µM; on Histamine H3 receptor [2], 0.0182 µM; at Histamine H1 receptor, 4.08 µM; at Histamine H3 receptor [3], 0.0066 µM; at Histamine H2 receptor, 1.73 µM.
As for `CC(C)(C)OC(=O)N1CCCN(c2c3c(nc4ccccc24)CCCCC3)CC1`, the Ki on Histamine H3 receptor [1] and on Histamine H3 receptor [2] was greater than 1 µM each time.
`CN1CCN(CCCNc2c3c(nc4ccccc24)CCCCC3)CC1`: the values for the Ki at Histamine H3 receptor [1] and at Histamine H3 receptor [2] were 0.0513 µM and 0.0977 µM, respectively.

(Values after ChEMBL document CHEMBL1136076, “A new class of histamine H(3)-receptor antagonists: synthesis and structure-activity relationships of 7,8,9,10-tetrahydro-6H-cyclohepta[b]quinolines” (Bioorg Med Chem Lett, 2003).)
